Experimental data as given in EPA's ToxRefDB 2.

Assays:
[1] = tested on: mouse; details: Carcinogenicity; b6c3f1; Oral; Gavage/Intubation; dose end: 105 week; group: systemic; systemic / pathology microscopic / nose / dilatation + systemic / pathology microscopic / nose / hyperplasia + systemic / pathology …
[2] = tested on: rat; details: Multigenerational reproductive toxicity study, sprague dawley, Oral, Gavage/Intubation, dose end: 2 generation
[3] = tested on: rat; details: Prenatal developmental toxicity study, sprague dawley, Oral, Gavage/Intubation, dose end: 19 GD
[4] = tested on: mouse; details: Subchronic oral toxicity in rodents, b6c3f1, Gavage/Intubation, dose end: 14 week, group: systemic
[5] = tested on: rat; details: Carcinogenicity, fischer, Oral, Gavage/Intubation, dose end: 105 week, group: systemic
[6] = tested on: rat; details: Subchronic oral toxicity in rodents, fischer, Gavage/Intubation, dose end: 14 week, group: systemic
[7] = tested on: mouse; details: Subchronic oral toxicity in rodents, b6c3f1, Gavage/Intubation, dose end: 13 week, group: systemic, systemic / pathology microscopic / kidney / vacuolization cytoplasmic + systemic / pathology microscopic / liver / vacuolization cytoplasmic…
[8] = tested on: rat; details: Combined chronic toxicity/carcinogenicity, fischer, Oral, Gavage/Intubation, dose end: 2 year, group: systemic
[9] = tested on: rat; details: Subchronic oral toxicity in rodents, fischer, Gavage/Intubation, dose end: 13 week, group: systemic
[10] = tested on: mouse; details: Combined chronic toxicity/carcinogenicity, b6c3f1, Oral, Gavage/Intubation, dose end: 2 year, group: systemic
[11] = tested on: primate; details: Sub-acute repeat dose toxicity, Oral, Gavage/Intubation, dose end: 23 day, group: systemic
[12] = tested on: primate; details: Sub-acute repeat dose toxicity; Oral; Gavage/Intubation; dose end: 34 day; group: systemic; systemic / pathology microscopic / intestine small / erosion + systemic / pathology microscopic / intestine small / hemorrhage + systemic / …
[13] = tested on: rat; details: Sub-acute repeat dose toxicity, sprague dawley, Oral, Gavage/Intubation, dose end: 29 day, group: systemic
[14] = tested on: rat; details: Sub-acute repeat dose toxicity, sprague dawley, Oral, Gavage/Intubation, dose end: 14 day, group: systemic
[15] = tested on: rat; details: Combined chronic toxicity/carcinogenicity; fischer; Oral; Feed; dose end: 365 day; group: systemic; systemic / in life observation / body weight / body weight
[16] = tested on: mouse; details: Combined chronic toxicity/carcinogenicity; other; Oral; Feed; dose end: 365 day; group: systemic; systemic / pathology gross / full gross necropsy / lymphoma malignant
[17] = tested on: rat; details: Sub-acute repeat dose toxicity; long evans; Oral; Gavage/Intubation; dose end: 4 week; group: systemic; systemic / in life observation / body weight / body weight gain + systemic / in life observation / clinical signs / drooping eyelids (ptosis…
[18] = tested on: rabbit; details: Prenatal developmental toxicity study, himalayan, Injection, Intravenous, dose end: 18 GD, group: maternal
[19] = tested on: rabbit; details: Prenatal developmental toxicity study, himalayan, Oral, Gavage/Intubation, dose end: 18 GD
[20] = tested on: rat; details: Sub-acute repeat dose toxicity, sprague dawley, Oral, Gavage/Intubation, dose end: 4 week, group: systemic
[21] = tested on: rat; details: Fertility (Segment I), wistar, Oral, Gavage/Intubation, dose end: 7 GD
[22] = tested on: rabbit; details: Prenatal developmental toxicity study, himalayan, Oral, Gavage/Intubation, dose end: 18 GD; remark: listed apart in the source
[23] = tested on: rat; details: Carcinogenicity, fischer, Oral, Feed, dose end: 2 year, group: systemic
[24] = group: offspring, developmental / developmental landmark / nipple development / nipple development + systemic / in life observation / body weight / offspring…
[25] = group: offspring, systemic / pathology microscopic / stomach / hyperkeratosis + systemic / pathology microscopic / stomach / hyperplasia
[26] = group: parental, systemic / in life observation / body weight / body weight + systemic / in life observation / body weight / dam weight + systemic / in life …
[27] = group: parental, systemic / organ weight / liver / relative to body weight + systemic / pathology microscopic / stomach / hyperkeratosis + systemic / …
[28] = group: reproductive, reproductive / offspring survival early / live fetuses / live fetuses
[29] = group: developmental, developmental / developmental malformation / bone / unossified + systemic / in life observation / body weight / fetal weight
[30] = group: maternal, systemic / in life observation / body weight / body weight + systemic / in life observation / body weight / body weight gain + systemic / in…
[31] = systemic / organ weight / liver / relative to body weight
[32] = systemic / pathology microscopic / nose / atrophy + systemic / pathology microscopic / nose / metaplasia
[33] = systemic / clinical chemistry / cytochrome p450, nos / cytochrome p450, nos
[34] = systemic / organ weight / liver / absolute + systemic / organ weight / liver / relative to body weight + systemic / pathology microscopic / …
[35] = systemic / in life observation / body weight / body weight + systemic / in life observation / body weight / body weight gain
[36] = systemic / in life observation / body weight / body weight + systemic / in life observation / mortality / mortality
[37] = systemic / in life observation / body weight / body weight + systemic / pathology microscopic / kidney / vacuolization cytoplasmic + …
[38] = systemic / pathology microscopic / kidney / vacuolization cytoplasmic + systemic / pathology microscopic / liver / vacuolization cytoplasmic…
[39] = systemic / clinical chemistry / alanine aminotransferase (alt/sgpt) / alanine aminotransferase (alt/sgpt) + systemic / clinical chemistry / …
[40] = systemic / in life observation / clinical signs / emesis
[41] = systemic / clinical chemistry / [other] / [other] + systemic / clinical chemistry / protein / protein + systemic / hematology / erythrocyte…
[42] = systemic / hematology / platelet / platelet + systemic / in life observation / body weight / body weight gain + systemic / in life …
[43] = systemic / in life observation / body weight / body weight gain
[44] = systemic / in life observation / body weight / body weight gain + systemic / in life observation / food consumption / food consumption + …
[45] = group: developmental, developmental / developmental malformation / paw / digit / [other]
[46] = group: maternal, systemic / in life observation / body weight / body weight gain + systemic / in life observation / clinical signs / [other] + systemic / in …
[47] = group: maternal, systemic / in life observation / clinical signs / ataxia + systemic / in life observation / clinical signs / motor activity + systemic / in …
[48] = systemic / clinical chemistry / adrenocorticotropic hormone (acth) / adrenocorticotropic hormone (acth)
[49] = systemic / clinical chemistry / adrenocorticotropic hormone (acth) / adrenocorticotropic hormone (acth) + systemic / clinical chemistry / …
[50] = group: maternal, reproductive / reproductive performance / implantations / implantations + reproductive / reproductive performance / preimplantation loss / …
[51] = group: parental, systemic / in life observation / clinical signs / salivation + systemic / in life observation / clinical signs / tremors + systemic / in …
[52] = group: developmental, developmental / developmental malformation / bone / incomplete ossification + developmental / developmental malformation / bone / short + …
[53] = group: maternal, systemic / in life observation / clinical signs / motor activity + systemic / in life observation / mortality / mortality
[54] = systemic / in life observation / body weight / body weight + systemic / pathology microscopic / urinary bladder / hyperplasia
[55] = systemic / in life observation / body weight / body weight + systemic / pathology microscopic / urinary bladder / hyperplasia + systemic / …

SMILES: C/C=C/c1ccc(O)c(OC)c1 [Isoeugenol]
- LEL [1]: 75 mg/kg/day
- LOAEL [1]: 75 mg/kg/day
- NEL [1]: < 75 mg/kg/day
- NOAEL [1]: < 75 mg/kg/day
- LOAEL [2, 24]: > 700 mg/kg/day
- NOAEL [2, 24]: ≥ 700 mg/kg/day
- LEL [2, 25]: 70 mg/kg/day
- NEL [2, 25]: < 70 mg/kg/day
- LOAEL [2, 26]: > 700 mg/kg/day
- NOAEL [2, 26]: ≥ 700 mg/kg/day
- LEL [2, 27]: 70 mg/kg/day
- NEL [2, 27]: < 70 mg/kg/day
- LEL [2, 28]: 700 mg/kg/day
- LOAEL [2, 28]: > 700 mg/kg/day
- NEL [2, 28]: 230 mg/kg/day
- NOAEL [2, 28]: ≥ 700 mg/kg/day
- LEL [3, 29]: 1000 mg/kg/day
- LOAEL [3, 29]: 1000 mg/kg/day
- NEL [3, 29]: 500 mg/kg/day
- NOAEL [3, 29]: 500 mg/kg/day
- LEL [3, 30]: 250 mg/kg/day
- LOAEL [3, 30]: 250 mg/kg/day
- NEL [3, 30]: < 250 mg/kg/day
- NOAEL [3, 30]: < 250 mg/kg/day
- LEL [4, 31]: 37.5 mg/kg/day
- NEL [4, 31]: < 37.5 mg/kg/day
- LOAEL ([4]; systemic / pathology microscopic / nose / atrophy + systemic / in life observation / body weight / body weight + systemic / in life …): 600 mg/kg/day
- NOAEL ([4]; systemic / pathology microscopic / nose / atrophy + systemic / organ weight / lung / absolute): 300 mg/kg/day
- LEL [5, 32]: 75 mg/kg/day
- LOAEL [5, 32]: 150 mg/kg/day
- NEL [5, 32]: < 75 mg/kg/day
- NOAEL ([5]; systemic / pathology microscopic / nose / atrophy + systemic / pathology microscopic / nose / metaplasia + systemic / pathology microscopic…): 75 mg/kg/day
- LEL [6, 33]: 75 mg/kg/day
- NEL [6, 33]: 37.5 mg/kg/day
- LOAEL [6, 34]: 600 mg/kg/day
- NOAEL [6, 34]: 300 mg/kg/day

SMILES: CC(=O)OC(C)c1ccccc1 (stereo not drawn) [Benzenemethanol, alpha-methyl-, acetate]
- LEL [7]: 2000 mg/kg/day
- LOAEL [7]: 2000 mg/kg/day
- NEL [7]: 1000 mg/kg/day
- NOAEL [7]: 1000 mg/kg/day
- LEL [8, 35]: 1000 mg/kg/day
- NEL [8, 35]: < 1000 mg/kg/day
- LOAEL ([8]; systemic / in life observation / body weight / body weight + systemic / pathology microscopic / kidney / nephropathy): 2000 mg/kg/day
- NOAEL ([8]; systemic / in life observation / body weight / body weight + systemic / pathology microscopic / kidney / nephropathy + systemic / in life …): 1000 mg/kg/day
- LOAEL ([9]; systemic / in life observation / body weight / body weight): 4000 mg/kg/day
- NEL [9, 36]: 2000 mg/kg/day
- NOAEL [9, 36]: 2000 mg/kg/day
- LEL ([9]; systemic / in life observation / body weight / body weight + systemic / in life observation / mortality / mortality + systemic / pathology …): 4000 mg/kg/day
- LOAEL [10, 37]: 1000 mg/kg/day
- NOAEL [10, 37]: 500 mg/kg/day
- LEL [10, 38]: 500 mg/kg/day
- NEL [10, 38]: < 500 mg/kg/day

SMILES: NC(=O)n1c(O)c(C(=O)c2ccc(Cl)s2)c2cc(Cl)ccc21
- LOAEL [11, 39]: > 30 mg/kg/day
- NOAEL [11, 39]: ≥ 30 mg/kg/day
- LEL [11, 40]: 1 mg/kg/day
- NEL [11, 40]: < 1 mg/kg/day
- LEL [12]: 3 mg/kg/day
- LOAEL [12]: > 10 mg/kg/day
- NEL [12]: 1 mg/kg/day
- NOAEL [12]: ≥ 10 mg/kg/day
- LOAEL [13, 41]: > 30 mg/kg/day
- NEL [13, 41]: 3 mg/kg/day
- NOAEL [13, 41]: ≥ 30 mg/kg/day
- LEL ([13]; systemic / clinical chemistry / protein / protein + systemic / hematology / erythrocyte (rbc) count differential / erythrocyte (rbc) + …): 10 mg/kg/day
- LOAEL [14, 42]: > 100 mg/kg/day
- NOAEL [14, 42]: ≥ 100 mg/kg/day
- LEL [14, 43]: 10 mg/kg/day
- NEL [14, 43]: < 10 mg/kg/day

SMILES: Cc1ccc(NC(N)=O)cc1 [p-Tolylurea]
- LEL [15]: 100 mg/kg/day
- LOAEL [15]: > 100 mg/kg/day
- NEL [15]: < 100 mg/kg/day
- NOAEL [15]: ≥ 100 mg/kg/day
- LEL [16]: 300 mg/kg/day
- LOAEL [16]: > 300 mg/kg/day
- NEL [16]: < 300 mg/kg/day
- NOAEL [16]: ≥ 300 mg/kg/day

SMILES: COc1cccc([C@H](O)C2CCN(CCc3ccc(F)cc3)CC2)c1OC [Volinanserin]
- LEL [17]: 150 mg/kg/day
- LOAEL [17]: > 150 mg/kg/day
- NEL [17]: 50 mg/kg/day
- NOAEL [17]: ≥ 150 mg/kg/day
- LEL ([18]; systemic / in life observation / body weight / body weight gain + systemic / in life observation / food consumption / food consumption): 3 mg/kg/day
- LOAEL [18, 44]: > 4.5 mg/kg/day
- NEL [18, 44]: 0.2 mg/kg/day
- NOAEL [18, 44]: ≥ 4.5 mg/kg/day
- LEL [19, 45]: 50 mg/kg/day
- LOAEL [19, 45]: > 100 mg/kg/day
- NEL [19, 45]: < 50 mg/kg/day
- NOAEL [19, 45]: ≥ 100 mg/kg/day
- LOAEL [19, 46]: > 100 mg/kg/day
- NOAEL [19, 46]: ≥ 100 mg/kg/day
- LEL [19, 47]: 50 mg/kg/day
- NEL [19, 47]: < 50 mg/kg/day
- LEL [20, 48]: 12.5 mg/kg/day
- NEL [20, 48]: < 12.5 mg/kg/day
- LOAEL [20, 49]: > 75 mg/kg/day
- NOAEL [20, 49]: ≥ 75 mg/kg/day
- LEL [21, 50]: 200 mg/kg/day
- LOAEL [21, 50]: > 200 mg/kg/day
- NOAEL [21, 50]: ≥ 200 mg/kg/day
- NEL [21, 51]: 20 mg/kg/day
- NOAEL [21, 51]: 20 mg/kg/day
- LEL [22, 52]: 40 mg/kg/day
- LOAEL [22, 52]: > 40 mg/kg/day
- NEL [22, 52]: 12.5 mg/kg/day
- NOAEL [22, 52]: ≥ 40 mg/kg/day
- LEL [22, 53]: 40 mg/kg/day
- LOAEL [22, 53]: > 40 mg/kg/day
- NEL [22, 53]: 12.5 mg/kg/day
- NOAEL [22, 53]: ≥ 40 mg/kg/day

SMILES: Cc1ccccc1N.Cl [2-Methylaniline hydrochloride]
- LOAEL [23, 54]: 300 mg/kg/day
- NOAEL [23, 54]: < 300 mg/kg/day
- LEL [23, 55]: 300 mg/kg/day
- NEL [23, 55]: < 300 mg/kg/day
